Source: patent publication EP0103381B1, “Substituted anthra(1,9-cd)pyrazol-6(2H)-ones” (WARNER-LAMBERT COMPANY, priority 1982, dated 1984)

System: lymphocytic leukemia P388
Assay: in vivo lymphocytic leukemia P388 test
Parameters: species or system mice
Details: Mus musculus, P388, ip, 720 h, two single doses four days apart, read-out: T/C × 100 (Percent)
Procedure, shortened: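 CD2F mice (6–7 per group) were inoculated intraperitoneally with P388 leukemia ascitic cells. Compounds were then given i.p. as two doses four days apart at various levels. Survival over 30 days was expressed as treated/control time ratio, efficacy criterion T/C×100 >125%.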

SMILES: CCN(CC)CCn1nc2c3c(c(NCCNCCO)ccc31)C(=O)c1c(O)ccc(O)c1-2 [Example 28, 2-[2-(Diethylamino)ethyl]-7,10-dihydroxy-5-[[2-[(2-hydroxyethyl)amino]ethyl]amino]anthra[1,9-cd]pyrazol-6(2H)-one]
- response vs control in vivo at 0.78 mg/kg (P388, Dose 0.78 mg/kg intraperitoneally): 140%
- response vs control in vivo at 1.56 mg/kg (P388, Dose 1.56 mg/kg intraperitoneally): 148%
- response vs control in vivo at 3.12 mg/kg (P388, Dose 3.12 mg/kg intraperitoneally): 164%
- response vs control in vivo at 6.25 mg/kg (P388, Dose 6.25 mg/kg intraperitoneally): 180%
